# Key:
# [1] = target: T1, human neurokinin-3 receptor (Homo sapiens, UniProt P29371); assay: Binding affinity to human NK-3 receptor expressed in CHO cells (inhibition of [125I]-[Me-Phe7]-NKB or [3H]-Senktide binding); conditions: human neurokinin-3 receptor expressed in CHO cell lines; read-out: Binding affinity, Ki (nM) hNK-3-CHO
# T1 construct: expressed in transfected cells; host or cells: CHO
# T1 sequence (P29371 1-465): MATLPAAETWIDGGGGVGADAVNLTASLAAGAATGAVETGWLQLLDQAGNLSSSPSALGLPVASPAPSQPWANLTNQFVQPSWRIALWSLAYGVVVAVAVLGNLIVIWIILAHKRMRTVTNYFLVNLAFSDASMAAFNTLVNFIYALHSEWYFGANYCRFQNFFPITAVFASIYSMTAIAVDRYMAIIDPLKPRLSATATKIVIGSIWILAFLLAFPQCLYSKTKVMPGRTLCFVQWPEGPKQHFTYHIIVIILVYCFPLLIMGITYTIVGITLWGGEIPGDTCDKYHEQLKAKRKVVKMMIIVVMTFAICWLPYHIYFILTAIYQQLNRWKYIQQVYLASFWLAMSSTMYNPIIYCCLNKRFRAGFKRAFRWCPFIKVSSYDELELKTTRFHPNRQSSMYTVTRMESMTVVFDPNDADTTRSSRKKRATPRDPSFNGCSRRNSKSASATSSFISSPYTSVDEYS
# Method: The activity of the compounds of the present invention, as NK3 ligands, is determined by their ability to inhibit the binding of the radiolabelled NK3 ligands, [^125I]-[Me-Phe^7]-NKB or [^3H]-Senktide, to guinea-pig and human NK3 receptors (Renzetti et al, 1991, Neuropeptide, 18, 104-114; Buell et al, 1992, FEBS, 299(1), 90-95; Chung et al, 1994, Biochem. Biophys. Res. Commun., 198(3), 967-972).
# The binding assays utilized allow the determination of the concentration of the individual compound required to reduce by 50% the [^125I]-[Me-Phe^7]-NKB and [^3H]-Senktide specific binding to NK3 receptor in equilibrium conditions (IC50).
# Binding assays provide for each compound tested a mean IC50 value of 2-5 separate experiments performed in duplicate or triplicate. […] The NK3-antagonist activity of the compounds of the present invention is determined by their ability to inhibit senktide-induced contraction of the guinea-pig ileum (Maggi et al, 1990, Br. J. Pharmacol., 101, 996-1000) and rabbit isolated iris sphincter muscle (Hall et al., 1991, Eur. J. Pharmacol., 199, 9-14) and human NK3 receptors-mediated Ca^++ mobilization (Mochizuki et al, 1994, J. Biol. Chem., 269, 9651-9658). Guinea-pig and rabbit in-vitro functional assays provide for each compound tested a mean KB value of 3-8 separate experiments, where KB is the concentration of the individual compound required to produce a 2-fold rightward shift in the concentration-response curve of senktide. Human receptor functional assay allows the determination of the concentration of the individual compound required to reduce by 50% (IC50 values) the Ca^++ mobilization induced by the agonist NKB. In this assay, the compounds of the present invention behave as antagonists.
# [2] = target: T2, human neurokinin-2 receptor (Homo sapiens, UniProt P21452); assay: Binding affinity to human NK-2 receptor expressed in CHO cells (inhibition of [125I]-NKA or [3H]-NKA binding); conditions: human neurokinin-2 receptor expressed in CHO cell lines; read-out: Binding affinity, Ki (nM) hNK-2-CHO
# T2 construct: expressed in transfected cells; host or cells: CHO
# T2 sequence (P21452 1-398): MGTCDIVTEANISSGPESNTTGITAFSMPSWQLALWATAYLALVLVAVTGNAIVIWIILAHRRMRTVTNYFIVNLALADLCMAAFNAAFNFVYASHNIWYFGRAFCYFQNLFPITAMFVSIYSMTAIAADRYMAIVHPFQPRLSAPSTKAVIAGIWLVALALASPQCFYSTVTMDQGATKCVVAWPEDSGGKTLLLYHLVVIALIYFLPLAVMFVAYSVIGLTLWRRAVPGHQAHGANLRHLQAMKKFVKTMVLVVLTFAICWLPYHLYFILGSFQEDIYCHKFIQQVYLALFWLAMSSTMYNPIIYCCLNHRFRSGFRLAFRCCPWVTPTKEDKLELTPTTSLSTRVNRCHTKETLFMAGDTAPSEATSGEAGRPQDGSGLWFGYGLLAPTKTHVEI
# Method: The activity of the compounds of the present invention, as NK-2 ligands, is determined by their ability to inhibit the binding of the radiolabelled NK-2 ligands, [^125I]-NKA or [^3H]-NKA, to human NK-2 receptors (Aharony et al, 1992, Neuropeptide, 23, 121-130).
# The binding assays utilized allow the determination of the concentration of the individual compound required to reduce by 50% the [^125I]-NKA and [^3H]-NKA specific binding to NK2 receptor in equilibrium conditions (IC50).
# Binding assays provide for each compound tested a mean IC50 value of 2-5 separate experiments performed in duplicate or triplicate. […] The NK-2-antagonist activity of the compounds of the present invention is determined by their ability to inhibit human NK-2 receptor-mediated Ca^++ mobilization (Mochizuki et al, 1994, J. Biol. Chem., 269, 9651-9658). Human receptor functional assay allows the determination of the concentration of the individual compound required to reduce by 50% (IC50 values) the Ca^++ mobilization induced by the agonist NKA. In this assay, the compounds of the present invention behave as antagonists.
Ki [1] [nM],Ki [2] [nM],melting point [°C],Compound
3.3,56.7,117 to 120,CC(C)[C@H](NC(=O)c1c(CN(C)C)c(-c2ccccc2)nc2ccccc12)c1ccccc1 [Example 41]
1,1.2,125 to 130,CC(C)[C@H](NC(=O)c1c(CN2CCN(C(C)C)CC2)c(-c2ccccc2)nc2ccccc12)c1ccccc1 [Example 43]

# Continued, compound first:
Compound,Ki [1] [nM],Ki [2] [nM],melting point [°C]
"CC[C@H](NC(=O)c1c(CN2CCC(=O)C2)c(-c2ccccc2)nc2ccccc12)c1ccccc1 [Example 34, (S)-N-(α-ethylbenzyl)-3-[(3-oxo)pyrrolidin-1-ylmethyl]-2-phenylquinoline-4-carboxamide]",1.5,38,142 to 145
CC[C@H](NC(=O)c1c(CN2CCN(CC)CC2)c(-c2ccccc2)nc2ccccc12)c1ccccc1 [Example 36],1.7,12.7,75 to 78
CC[C@H](NC(=O)c1c(CN2CCN(CCc3ccccc3)CC2)c(-c2ccccc2)nc2ccccc12)c1ccccc1 [Example 37],0.8,0.9,158 to 160

# From patent US20010012846A1, “Quinoline-4-carboxamide derivatives as NK-2 and NK-3 receptor antagonists” (priority 1997, published 2001)
